Earlier results as cited in patent publication US20220323439A1, “URACIL DERMAL PHARMACEUTICAL FORMULATION” (NANOMETICS LLC (D.B.A PHD BIOSCIENCES), priority 2019, published 2022).

Conditions: oral uracil 500 mg/m^2

In the case of `O=c1cc[nH]c(=O)[nH]1` [uracil, Uracil], the “Cmax of uracil after oral administration” value is listed as 20 mg/L.
